The subject of data set [1] is full-thickness back-skin wounds in db/db mice. Description: Retention of VEGF-A165 at the wound site. It counts as in vivo, mouse. As to conditions: 3 days after treatment, fibrin matrix with 200 ng/wound VEGF-A165 and 2 µM peptide vs without peptide, ELISA. On the procedure: Ten C57BLKS/J-m/Lepr db (db/db) mice (The Jackson laboratory) aged 10–11 weeks were used. Their backs were shaved and four full-thickness punch-biopsy wounds (6 mm in diameter) were created in each mouse. Directly after, fibrin matrices [80 µL in total, fibrinogen (10 mg/mL), 2 U/mL human thrombin, 4 U/mL factor XIII, 5 mM calcium chloride, 2 µM α2PI1–8-LAMA3_3043–3067, and 200 ng of recombinant human VEGF-A165] were polymerized on the wounds. To avoid drying of the matrices, the wounds were covered with non-adhering dressing (Adaptic, Johnson&Johnson), and then with adhesive film dressing (Hydrofilm, Hartmann). After 3 or 6 days, mice were sacrificed. The wounds were punched again, in order to recover the fibrinous matrices. Moreover, the tissue surrounding the wounds (2 mm beyond the wound margin) was removed. The tissue was transferred in 0.9 mL of tissue T-PER Tissue Protein Extraction Reagent (Thermo Scientific) containing 1 mg/mL of collagenase IV (Sigma-Aldrich), and homogenized with a tissue homogenizer. […] Recombinant human VEGF-A165 remaining in the fibrinous matrix and in the tissue surrounding the wound was quantified by ELISA (DuoSet, R&D Systems), using 200 ng of recombinant human VEGF-A165 as 100%. […]

The nature of data set [2]: ELISA: biotinylated heparin binding to laminin peptides. Also noted: key to Interaction with Heparin: ++ indicates high affinities; + indicates medium/low affinities. On the procedure: (§1) ELISA tests were performed as described above. In brief, […] recombinant protein, laminin alpha 4 LG domain recombinant protein (R&D Systems), laminin alpha 5 LG domain recombinant protein (LD BioPharma), or laminin peptide (sequences are described in Supplementary Table 1, chemically synthesized by Genscript) in PBS for 2 h at 37 °C. A concentration of 1 μg/mL of BSA served as non-binding protein control. After blocking with 2% BSA PBS-0.05% Tween 20 (PBS-T) solution, 1 μg/mL of the recombinant human proteins (VEGF-A121, VEGF-A165, PlGF-1, PlGF-2, PDGF-BB, or FGF-2) or 10 μg/mL of biotinylated heparin (Sigma-Aldrich) were added. Bound GF was detected with biotinylated antibodies for human VEGF-A, PlGF, PDGF-BB (R&D Systems, Catalog No. DY220, 1:180 dilution), or FGF-2 (R&D Systems). The antibodies were detected by streptavidin-HRP (R&D Systems).
Background: In an ELISA, binding on a coated surface is turned into a signal by an enzyme label.

Data set [3] has as its system HUVEC cells. The data set can be described thus: Migration assay (transwell). As to conditions: 0.1 μM peptide, in the presence and absence of 30 ng/mL VEGF-A165; 6 h; n = 4. Type of data set: cell-based, human. On the procedure: A QCM 24-Well Colorimetric Cell Migration Assay Kit was used to perform migration assay. Both sides of inserts were coated with 0.1 μM of bovine collagen I (C4243, Sigma-Aldrich) for 1 h at 37 °C. Then, the inserts were washed with water, dried in a laminar flow cabinet, and disposed on 24-well cell culture plate covers. Solutions containing 30 ng/mL of VEGF-A165 preincubated with or without 0.1 μM of LAMA3_3043–3067 peptide in a medium (MCDB-131, 0.05% BSA) were added to the bottom side of the transwell (500 μL/well). Directly thereafter, HUVEC cells (Lonza) in a medium containing 0.05% BSA (300 μL/transwell, 4 × 10^4 cells/transwell) were added to the transwell upper parts. After 6 h, migrated cells were stained and absorbance at 560 nm was measured according to the manufacturer’s instructions.

The test system of data set [4] is human umbilical vein endothelial cells (HUVEC). Description: Cell adhesion assay, HUVEC. The arrangement: key to Cell adhesion HUVEC: ++ indicates high affinities; + indicates medium/low affinities. Type of data set: cell-based. On the procedure:
A total of 96-well plates (non-tissue culture treated, Greiner Bio-One) were pre-coated with 1 μg/mL with laminin HBD peptides in PBS for 2 h at 37 °C, followed by blocking with 2% BSA PBS for 1 h at RT. […] Cells were plated at 3000 cells/well on laminin peptide pre-coated plates and incubated for 30 min at 37 °C, 5% CO2. Then, the medium was removed, and wells were quickly washed three times with PBS. Cell numbers were quantified using a CyQUANT assay, according to the manufacturer’s instructions (Invitrogen). All cell lines were checked for mycoplasma contamination and used in passages from 5 to 8.

Data set [5] concerns human lung fibroblasts. The data set can be described thus: Cell adhesion assay, fibroblasts. It counts as cell-based. The arrangement: key to Cell adhesion Fibroblast: ++ indicates high affinities; + indicates medium/low affinities. On the procedure:
A total of 96-well plates (non-tissue culture treated, Greiner Bio-One) were pre-coated with 1 μg/mL with laminin HBD peptides in PBS for 2 h at 37 °C, followed by blocking with 2% BSA PBS for 1 h at RT. Cell adhesion assays were performed using human lung fibroblasts (Lonza) in FGM-2 medium (Lonza) or human umbilical vein endothelial cells (HUVEC; Lonza) in EGM-2 medium (Lonza) supplemented with 1% fetal bovine serum (FBS) and […] VEGF-A165, with or without 5 mM EDTA (Sigma-Aldrich). Cells were plated at 3000 cells/well on laminin peptide pre-coated plates and incubated for 30 min at 37 °C, 5% CO2. Then, the medium was removed, and wells were quickly washed three times with PBS. Cell numbers were quantified using a CyQUANT assay, according to the manufacturer’s instructions (Invitrogen). All cell lines were checked for mycoplasma contamination and used in passages from 5 to 8.

Data set [6] concerns recombinant human syndecan-1, syndecan-2, syndecan-3, and syndecan-4. The data set can be described thus: ELISA: syndecan binding to laminin peptides. The arrangement: key to Interaction with Syndecan: ++ indicates high affinities; + indicates medium/low affinities. On the procedure:
ELISA tests were performed as described above. […] A concentration of 1 μg/mL of BSA served as non-binding protein control. After blocking with 2% BSA PBS-T solution, 1 μg/mL of the recombinant human syndecan-1, syndecan-2, syndecan-3, and syndecan-4 (all syndecan proteins are histidine-tagged; SinoBiological) were added. Bound GF was detected with anti-histidine tag antibody (BioLegend, Catalog No. 562504, 1:1000 dilution).

Data set [7] concerns PlGF-2. The data set can be described thus: ELISA: PlGF-2 binding to laminin LG domain / laminin peptide. The arrangement: species or system human. The note with it: 10 µg/mL laminin peptide coated (legend; method 1 μg/mL); 1 μg/mL GF; vs BSA-coated wells; n = 4. On the procedure: (§2) ELISA tests were performed as described above. In brief, ELISA plates were coated with 1 μg/mL of laminin alpha 3 LG domain recombinant protein, laminin alpha 4 LG domain recombinant protein (R&D Systems), laminin alpha 5 LG domain recombinant protein (LD BioPharma), or laminin peptide (sequences are described in Supplementary Table 1, chemically synthesized by Genscript) in PBS for 2 h at 37 °C. A concentration of 1 μg/mL of BSA served as non-binding protein control. After blocking with 2% BSA PBS-0.05% Tween 20 (PBS-T) solution, 1 μg/mL of the recombinant human proteins (VEGF-A121, VEGF-A165, PlGF-1, PlGF-2, PDGF-BB, or FGF-2) or 10 μg/mL of biotinylated heparin (Sigma-Aldrich) were added. Bound GF was detected with biotinylated antibodies for human VEGF-A, PlGF, PDGF-BB (R&D Systems, Catalog No. DY220, 1:180 dilution), or FGF-2 (R&D Systems). The antibodies were detected by streptavidin-HRP (R&D Systems).

In data set [8] the test system is GF. The data set can be described thus: ELISA: GF binding to laminin peptides, stated for the tested GFs together. Also noted: species or system human; key: ++ indicates high affinities; + indicates medium/low affinities. The note with it: summary table. On the procedure:
as §2

Data set [9] relates to PDGF-BB. Description: ELISA: PDGF-BB binding to laminin LG domain / laminin peptide. The arrangement: species or system human. As to conditions: 10 µg/mL laminin peptide coated (legend; method 1 μg/mL); 1 μg/mL GF; vs BSA-coated wells; n = 4. On the procedure: as §2
Data set [10] concerns VEGF-A165. The data set can be described thus: ELISA: VEGF-A165 binding to laminin LG domain / laminin peptide. Also noted: species or system human. The note with it: 10 µg/mL laminin peptide coated (legend; method 1 μg/mL); 1 μg/mL GF; vs BSA-coated wells; n = 4. On the procedure: as §1
Data set [11] relates to FGF-2. Description: ELISA: FGF-2 binding to laminin LG domain / laminin peptide. The arrangement: species or system human. The note with it: 10 µg/mL laminin peptide coated (legend; method 1 μg/mL); 1 μg/mL GF; vs BSA-coated wells; n = 4. On the procedure:
as §2

In data set [12] the test system is GF (VEGF-A165, PlGF-2, FGF-2) binding to laminin. Description: Inhibition of laminin–GF binding by heparin (ELISA). The arrangement: species or system human. As to conditions: 10 µM heparin; 10 µg/mL laminin coated; 1 μg/mL VEGF-A165, PlGF-2 or FGF-2; n = 4. On the procedure: ELISA plates (med-binding) were coated with 10 μg/mL laminin isoforms (–111, –211, –221, –411, –421, –511, and –521) in PBS for 2 h at 37 °C. Then, wells were blocked with 2% BSA-containing PBS-T and further incubated with 1 μg/mL each of VEGF-A165, PlGF-2, or FGF-2 for 60 min at RT with 10 μM heparin. Next, the wells were incubated with biotinylated anti-VEGF (R&D Systems, Catalog No. DY293B, 1:60 dilution), anti-PlGF (R&D Systems, Catalog No. DY264, 1:180 dilution), or anti-FGF-2 (R&D Systems, Catalog No. DY233, 1:60 dilution) antibodies. The antibodies were detected by streptavidin-HRP (R&D Systems).

The text below walks through data of paper PMC5986797, “Laminin heparin-binding peptides bind to several growth factors and enhance diabetic wound healing” (Nature Communications, 2018).

Take “NQEQVSPLRLVFALGTDGKKLRIKSKEKCNDGK [α2PI1–8-LAMA3_3043–3067]”: the “amount of VEGF-A165 remaining in the wounds” value in data set [1] is “significantly enhanced”.
On to “RLVFALGTDGKKLRIKSKEKCNDGK [LAMA3_3043–3067, chemically synthesized human laminin LAMA3 LG4 HBD peptide, 25 aa]”, for which the “binding to heparin (ELISA)” value in [2] (10 µg/mL laminin peptide coated (legend; method 1 μg/mL), 10 µg/mL biotinylated heparin, vs BSA-coated wells, n = 4) was “bound to heparin”. Besides, the “Interaction with Heparin” value in data set [2] (summary table) is listed as “++”. Further, the “degree of migration of HUVEC cells, peptide” value in data set [3] was “did not increase the degree of cell migration”. Besides, the “HUVEC attachment in the presence of EDTA” value in data set [4] (5 mM EDTA, 1 μg/mL peptide coated, 3000 cells/well, 30 min, 37 °C, CyQUANT, n = 10) is reported as “even in the presence of EDTA”. For the same substance, in data set [4] (summary table), the “Cell adhesion HUVEC” value is recorded as “++”. Moreover, the “HUVEC attachment on peptide-coated surfaces” value in data set [4] (without EDTA, 1 μg/mL peptide coated, 3000 cells/well, 30 min, 37 °C, 100 ng/mL VEGF-A165, 1% FBS, CyQUANT, n = 10) is on record as “promoted HUVEC attachment”. For the same substance, the “Cell adhesion Fibroblast” value in [5] (summary table) is on record as “++”. The “fibroblast attachment on peptide-coated surfaces” value in [5] (without EDTA, 1 μg/mL peptide coated, 3000 cells/well, 30 min, 37 °C, FGM-2, 1% FBS, CyQUANT, vs BSA, n = 10) was “enhancement of fibroblast attachment”. Besides, the “binding to syndecans 1–4 (ELISA)” value in [6] (10 µg/mL laminin peptide coated (legend; method 1 μg/mL), 1 μg/mL histidine-tagged syndecan, vs BSA-coated wells, n = 8) is recorded as “significant binding”. Further, the “Interaction with Syndecan” value in data set [6] (summary table) was “++”. Further, the “binding to PlGF-2 (ELISA), peptides” value in [7] is given as “bound”. The “Interaction with GF” value in data set [8] is recorded as “++”. In data set [9], the “binding to PDGF-BB (ELISA), peptides” value is recorded as “bound”. Further, in [10], the “binding to VEGF-A165 (ELISA), peptides” value is reported as “bound”. In addition, the “binding to FGF-2 (ELISA), peptides” value in data set [11] is “bound”.
For heparin, in data set [12], the “inhibition of GF binding to laminin by excess heparin” value is given as “inhibited”.
